Experimental data published in ChEMBL document CHEMBL1149001, “Phebalosin from the bark of Micromelum minutum” (J Nat Prod, 1986).
Values after ≈ are worked out from the molar mass of the structure shown.

Key:
Artemia = experiment: Toxicity in brine shrimp; assay type: organism-based; conditions: in vivo
[1] = tested on: Agrobacterium tumefaciens; experiment: Antitumor activity against Agrobacterium tumefaciens-induced crown gall tumors assessed as inhibition of tumor development in potato by crown gall tumor potato disk test; assay type: functional; set-up: scale not given: the % may be the effect or the level left
[2] = Cytotoxicity against human 9KB cells; assay type: functional; conditions: read-out: ED50 (the source's name)
[3] = Cytotoxicity against mouse 9PS cells; assay type: functional; conditions: read-out: ED50 (the source's name)

For `C=C(C)[C@H]1O[C@@H]1c1c(OC)ccc2ccc(=O)oc12` [PHEBALOSIN], which LC50 (Artemia) is on record?
Its LC50 is 47 ppm.

And the Activity [1]?
The Activity was -70%.

And the EC50 [2]?
The EC50 was > 20 µg/mL.

And the EC50 [3]?
The EC50 was 27 µg/mL (≈ 105 µM).
